Series [1] has as its system murine mammary carcinoma 4T1 cells. Briefly: Antitumor activity as sonosensitizers (SDT) on tumor-bearing mice. It is filed as in vivo. As to the method: The murine mammary carcinoma cells (4T1 line) were subjected to adherent culture. After growing to a confluence of 70%-80%, the cells in the culture flask were routinely digested, centrifuged and counted, and then resuspended with 0.85% normal saline to a density of 1×10^7 cells/mL. The cell suspension was injected into the left lateral middle axillary subcutaneous part of […] Bal b/c healthy mice (female, aged 6-8 weeks) at 0.1 mL/mouse. When the tumor diameter, which was observed every other day, reached 0.6-0.8 cm, the mice with well-growing tumors and no ulcers on the epidermis were selected for grouped treatment.
Mice with similar body weight and uniform tumor size are selected and randomly divided into 6 groups with 6 mice for each group. 48 h after inoculation, the mice were subjected to drug administration separately from the tail vein by group.
[…] 6 h after drug administration, each group of mice was anesthetized by intraperitoneal injection with 0.2 mL of 1% pentobarbital sodium. Then the mice were fixed to allow the tumor growth site exposed. The SDT group was treated using an ultrasonic therapeutic apparatus at an impulse waveform of 1.0 MHz and power of 3.0 W/cm^2 for 3 min. 7 days after SDT, the animals were sacrificed. The tumor was stripped and weighed, and the body weight was recorded.

Series [2] is described as follows: Photosensitizer-mediated PDT, in vitro proliferation (MTT), Hela. It is filed as cell-based, human. As to conditions: human, Hela cells, Hela, no light, read-out: cell viability (%). As to the method: (§1) Several kinds of tumor cells (human cervical cancer Hela cells, human hepatocellular carcinoma huh-7 cells and murine mammary carcinoma 4T1 cells) cultured in vitro from a variety of tissues were taken as cell models, so as to investigate the photodynamic effects mediated by different doses of CEFN, CEFO, Ce6 and HPPH on the three different tumor cells (n=3). The specific experimental procedures were carried out as follows.
(§2) Cells in the logarithmic growth phase were harvested and seeded in a 24-well plate. After growing to a confluence of 70-80%, the cells were randomly divided into a control group (free of drug and light irradiation), a drug group and a photodynamic group. The CEFN, CEFO, Ce6 and HPPH were added respectively in dark, and for each drug, four final concentrations 1, 2, 5, and 10 μg/mL were set with 3 replicates for each group. After the co-incubation, the groups were treated individually. Regarding the photodynamic group, the light irradiation was performed at a wavelength of 660 nm and three different light intensities, i.e., 2, 4 and 8 J/cm^2. After that, each group was digested, and were inoculated into a 96-well plate at 100 μL per well with 4 replicates for each treatment. 24 hours later, the 96-well plate was subjected to MTT assay as follows. Each well was added with 20 μL of MTT (3-4,5-dimethylthiazol-2,5-diphenyltetrazolium bromide) solution in the dark and incubated for 4 hours. The supernatant was discarded, and the residue was dissolved with 150 μL of dimethyl sulfoxide for 15 min. After that, the 96-well plate was measured by a microplate reader for the absorbance (OD value). The relative cell viability was calculated as follows: relative cell viability=OD value of experimental group/OD value of control group*100%.

For series [3], the system named is human cervical cancer Hela cells. The description is as above. It counts as cell-based. The method, then:
as §1, §2

For series [4], the system named is murine mammary carcinoma 4T1 cells. Briefly: Photosensitizer-mediated PDT, in vitro proliferation (MTT), 4T1. It is filed as cell-based. The settings on record: Mus musculus, light or radiation study, 660 nm, 8 J/cm^2, read-out: cell viability (%). The method, then: as §1, §2
(§3) In this experiment, photodynamic effect mediated by the compounds (except CEFO and CEFN) in different Examples of this disclosure on the murine mammary carcinoma 4T1 cells was investigated. The experimental procedures are carried out as follows. Cells in the logarithmic growth phase were harvested and seeded in a 24-well plate. After growing to a confluence of 70-80%, the cells were randomly divided into multiple photodynamic groups and multiple no-light control groups. The compounds (as shown in Table 8a) with a final concentration of 10 μg/mL were added to each group respectively in dark with 3 replicates for each group, so as to co-incubate the cells with the drug. Regarding the multiple photodynamic groups, the light irradiation was performed at a wavelength of 660 nm and the light intensity of 8 J/cm^2. After that, each group was digested, and were inoculated into a 96-well plate at 100 μL per well with 4 replicates for light treatment and no light treatment. 24 hours later, the 96-well plate was measured by MTT assay as follows. Each well was added with 20 μL of MTT (3-4,5-dimethylthiazol-2,5-diphenyltetrazolium bromide) solution in the dark and incubated for 4 hours. The supernatant was discarded, and the residue was dissolved with 150 μL of dimethyl sulfoxide for 15 min. After that, the 96-well plate was measured by a microplate reader for the absorbance (OD value). The relative cell viability of the murine mammary carcinoma 4T1 cells was calculated as follows according to the measured absorbance (OD value) in each group: relative cell viability=OD value of experimental group/OD value of control group*100%.

Experiment in series [5]: as above
The settings on record: mouse, 4T1 cells, no light, read-out: cell viability (%). It is filed as cell-based, murine. As to the method:
as §1, §2, §3

Series [6] can be described thus: Photosensitizer-mediated PDT, in vitro proliferation (MTT), huh-7. It is filed as cell-based, human. The settings on record: human, huh-7 cells, no light, read-out: cell viability (%). The method, then: as §1, §2
Series [7] relates to human hepatocellular carcinoma huh-7 cells. The description is as above. It counts as cell-based. The settings on record: Homo sapiens, light or radiation study, 660 nm, 8 J/cm^2, read-out: cell viability (%). The method, then:
as §1, §2

The conditions of series [8]: background statement; cited from earlier work.
The mark [9] stands for this setting: 5 mg/kg tail vein, SDT 1.0 MHz, 3.0 W/cm^2, 3 min, 6 h after dosing, 7 days after SDT.
The mark [10] stands for this setting: 5 mg/kg, SDT, mice, in g (unit assumed).

For the compound `C=Cc1c(C)c2cc3nc(c(CC(=O)O)c4[nH]c(cc5nc(cc1[nH]2)C(C)=C5CC)c(C)c4C(=O)O)[C@@H](CCC(=O)O)[C@@H]3C` [Ce6, reference compound], the “Inhibitory rate (average ± SD, %)” value in series [1] (setting [9]) is reported as 53.3 ± 2.8%. In addition, the “Tumor weight (average ± SD, g)” value in series [1] (setting [9]) is listed as 0.080 ± 0.005 g. The “Body weight At the beginning” value in series [1] (setting [10]) was determined as 20.5 ± 0.4. In addition, the “Body weight At the end” value in series [1] (setting [10]) was determined as 21.4 ± 0.5. In addition, the viability at 24 h, 1 μg/mL in series [2] (1 μg/mL) came out at 92 ± 3%; in series [5] (1 μg/mL), 91 ± 2%; in series [6] (1 μg/mL) it was 96 ± 1%. For the same compound, the viability at 24 h, 2 μg/mL in series [2] (2 μg/mL) was found to be 89 ± 2%; in series [5] (2 μg/mL), 90 ± 3%; in series [6] (2 μg/mL), 94 ± 2%. Also, the figures for the viability at 24 h, 5 μg/mL in series [2] (5 μg/mL), in series [5] (5 μg/mL) and in series [6] (5 μg/mL) were 86 ± 4%, 86 ± 4% and 90 ± 2%, respectively. In addition, the viability at 24 h, 10 μg/mL in series [2] (10 μg/mL) turned out to be 83 ± 3%; in series [5] (10 μg/mL) it was 85 ± 4%; in series [6] (10 μg/mL), 87 ± 2%. The viability at 1 µg/mL worked out at 86 ± 3% in series [3] (Homo sapiens, light or radiation study, Hela, 1 μg/mL, 660 nm, 8 J/cm^2, read-out: cell viability (%)); 88 ± 2% in series [4] (1 μg/mL); 42 ± 3% in series [7] (1 μg/mL). Further, the viability at 2 µg/mL was determined as 76 ± 3% in series [3] (Homo sapiens, light or radiation study, Hela, 2 μg/mL, 660 nm, 8 J/cm^2, read-out: cell viability (%)); 79 ± 3% in series [4] (2 μg/mL); 37 ± 3% in series [7] (2 μg/mL). Besides, the viability at 5 µg/mL in series [3] (Homo sapiens, light or radiation study, Hela, 5 μg/mL, 660 nm, 8 J/cm^2, read-out: cell viability (%)) was 38 ± 2%; in series [4] (5 μg/mL), 54 ± 3%; in series [7] (5 μg/mL) it was 37 ± 2%. The viability at 10 µg/mL was 21 ± 1% in series [3] (Homo sapiens, light or radiation study, Hela, 10 μg/mL, 660 nm, 8 J/cm^2, read-out: cell viability (%)); 36 ± 1% in series [4] (10 μg/mL); 32 ± 3% in series [7] (10 μg/mL). The “toxicity to the cells when the drug is used alone without photodynamic treatment” value in series [3] (summary statement for Hela, huh-7 and 4T1 cells, no light) was “toxic to the cells”.
Regarding “2-(1-n-hexyloxy)ethyl chlorin f sodium salt”, in series [8], the water solubility result is reported as “water-soluble”.

In general, viability refers to the share of living cells, or the viability signal relative to a control.

Source of the values: patent publication US11787816B2, “Chlorin compound, and preparation and use thereof” (Southwest Jiaotong University, priority 2021, dated 2023).
